Data on four compounds can be found in publication PMC6628159 (Marine Drugs, 2019).

“And” between values parts separate entries of the source, which are not always exact repeats. Equal entries are not always repeated. Where two headings read alike, the source gives them in different places.

One assay deals with T1, recombinant human HDAC1 (Homo sapiens, UniProt Q13547).
T1 construct: purchased BPS Biosciences
In words: Recombinant human HDAC1 enzymatic assay (Ac-peptide-AMC, fluorescence). Type of assay: biochemical.

A further assay addresses T2, recombinant human HDAC2 (Homo sapiens, UniProt Q92769).
T2 construct: purchased BPS Biosciences
In words: Recombinant human HDAC2 enzymatic assay (Ac-peptide-AMC, fluorescence). Type of assay: biochemical.

The target of the next assay is T3, recombinant human HDAC8 (Homo sapiens, UniProt Q9BY41).
T3 construct: purchased BPS Biosciences
T3 sequence (Q9BY41 1-377): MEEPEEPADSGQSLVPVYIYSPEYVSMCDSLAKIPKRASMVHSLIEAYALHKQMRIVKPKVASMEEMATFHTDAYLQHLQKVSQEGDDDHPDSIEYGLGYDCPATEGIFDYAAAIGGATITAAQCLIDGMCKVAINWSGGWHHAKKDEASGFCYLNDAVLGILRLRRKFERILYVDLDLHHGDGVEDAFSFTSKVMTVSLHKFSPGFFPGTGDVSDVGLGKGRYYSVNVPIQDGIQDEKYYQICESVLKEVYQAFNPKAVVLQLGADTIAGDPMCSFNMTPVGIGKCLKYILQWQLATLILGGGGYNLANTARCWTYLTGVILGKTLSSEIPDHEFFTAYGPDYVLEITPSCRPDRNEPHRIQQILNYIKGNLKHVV
The experiment in a line: Recombinant human HDAC8 enzymatic assay (Ac-peptide-AMC, fluorescence). It counts as biochemical.

A further assay deals with A549 tumor cells. The experiment in a line: MTT assay, growth inhibition of A549 cells. It counts as cell-based. The settings on record: Homo sapiens, read-out: IC50 ± SD A549 growth inhibition.
Assay [1] relates to HCT116 tumor cells. The experiment in a line: MTT assay, growth inhibition of HCT116 cells. It counts as cell-based. The following applies: seven-dose IC50 mode in duplicate, four-fold serial dilution.
Experimental: (§1) Cells (600,000 cells/well) were seeded in 96-well plates and incubated for 24 h before being treated with various concentrations of compounds or solvent control. Cells were further incubated for 72 h and then treated with MTT and incubated for another 3 h. The media were then removed and 100 µL DMSO was added to each well. The absorbance at 550 nm was measured by a SpectraMAX340 microplate reader (Molecular Devices, Sunnyvale, CA, USA) with a reference wavelength at 690 nm.
Another assay concerns MDA-MB-231 tumor cells. In words: MTT assay, growth inhibition of MDA-MB-231 cells. It counts as cell-based. The following applies: Homo sapiens, read-out: IC50 ± SD MDA-MB-231 growth inhibition. (In general: Formazan colour is commonly taken as a measure of viable cells.)
For a further assay, the system named is SK-OV-3 tumor cells. In words: MTT assay, growth inhibition of SK-OV-3 cells. It counts as cell-based. The following applies: seven-dose IC50 mode in duplicate, four-fold serial dilution.
For another assay, the target named is T4, recombinant human HDAC3 (Homo sapiens, UniProt O15379).
T4 construct: purchased BPS Biosciences
The experiment in a line: Recombinant human HDAC3 enzymatic assay (Ac-peptide-AMC, fluorescence). It counts as biochemical. The following applies: 10-dose IC50 mode in duplicate, threefold serial dilution; 60 min reaction; read-out: IC50 ± SD HDAC3.

In another assay the target is T5, recombinant human HDAC6 (Homo sapiens, UniProt Q9UBN7).
T5 construct: purchased BPS Biosciences
T5 sequence (Q9UBN7 1-1215): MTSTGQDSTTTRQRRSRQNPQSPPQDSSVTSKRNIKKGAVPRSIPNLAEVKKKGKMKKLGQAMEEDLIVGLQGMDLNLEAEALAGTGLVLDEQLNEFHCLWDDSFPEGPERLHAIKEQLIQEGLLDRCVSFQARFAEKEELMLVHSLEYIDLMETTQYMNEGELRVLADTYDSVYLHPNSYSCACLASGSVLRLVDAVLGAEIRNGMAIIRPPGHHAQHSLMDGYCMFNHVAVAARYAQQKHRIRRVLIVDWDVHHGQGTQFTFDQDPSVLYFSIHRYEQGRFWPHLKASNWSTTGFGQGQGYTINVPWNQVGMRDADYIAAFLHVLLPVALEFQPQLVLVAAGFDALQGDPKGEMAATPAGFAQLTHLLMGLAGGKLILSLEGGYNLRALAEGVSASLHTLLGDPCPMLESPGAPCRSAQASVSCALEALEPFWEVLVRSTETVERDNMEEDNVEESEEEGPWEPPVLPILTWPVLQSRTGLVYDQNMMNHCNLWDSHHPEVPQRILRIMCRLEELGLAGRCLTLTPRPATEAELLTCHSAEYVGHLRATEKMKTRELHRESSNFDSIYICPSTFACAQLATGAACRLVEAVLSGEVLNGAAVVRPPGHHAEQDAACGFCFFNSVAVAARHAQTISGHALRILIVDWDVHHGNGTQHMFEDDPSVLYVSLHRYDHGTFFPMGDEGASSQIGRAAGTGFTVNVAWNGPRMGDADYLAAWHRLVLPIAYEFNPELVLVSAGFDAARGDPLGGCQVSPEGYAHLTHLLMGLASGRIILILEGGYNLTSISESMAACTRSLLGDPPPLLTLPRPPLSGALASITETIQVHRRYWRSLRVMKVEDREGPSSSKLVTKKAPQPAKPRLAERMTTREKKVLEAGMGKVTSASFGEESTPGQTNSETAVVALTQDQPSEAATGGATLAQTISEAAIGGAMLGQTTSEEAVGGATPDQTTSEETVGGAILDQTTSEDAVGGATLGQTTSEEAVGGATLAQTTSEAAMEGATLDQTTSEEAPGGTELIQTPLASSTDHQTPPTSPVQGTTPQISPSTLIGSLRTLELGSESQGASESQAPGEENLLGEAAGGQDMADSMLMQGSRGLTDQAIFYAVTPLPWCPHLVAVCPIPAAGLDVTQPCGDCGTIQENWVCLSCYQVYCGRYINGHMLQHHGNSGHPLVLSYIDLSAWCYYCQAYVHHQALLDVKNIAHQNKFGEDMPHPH
The experiment in a line: Recombinant human HDAC6 enzymatic assay (Ac-peptide-AMC, fluorescence). The settings on record: read-out: IC50 ± SD HDAC6. Type of assay: biochemical.

For assay [2], the system named is HCT116 tumor cells. The following applies: reported by Leusch; read-out: IC50 HCT116 growth inhibition (data in parentheses) (converted); cited from earlier work.
[3] abbreviates: IC50 value ratio of HDAC 1 versus HDAC 6.
The mark [4] stands for this setting: 10-dose IC50 mode in duplicate, threefold serial dilution, 240 min reaction, read-out: IC50 ± SD HDAC8.

T1 sequence (Q13547 whole entry): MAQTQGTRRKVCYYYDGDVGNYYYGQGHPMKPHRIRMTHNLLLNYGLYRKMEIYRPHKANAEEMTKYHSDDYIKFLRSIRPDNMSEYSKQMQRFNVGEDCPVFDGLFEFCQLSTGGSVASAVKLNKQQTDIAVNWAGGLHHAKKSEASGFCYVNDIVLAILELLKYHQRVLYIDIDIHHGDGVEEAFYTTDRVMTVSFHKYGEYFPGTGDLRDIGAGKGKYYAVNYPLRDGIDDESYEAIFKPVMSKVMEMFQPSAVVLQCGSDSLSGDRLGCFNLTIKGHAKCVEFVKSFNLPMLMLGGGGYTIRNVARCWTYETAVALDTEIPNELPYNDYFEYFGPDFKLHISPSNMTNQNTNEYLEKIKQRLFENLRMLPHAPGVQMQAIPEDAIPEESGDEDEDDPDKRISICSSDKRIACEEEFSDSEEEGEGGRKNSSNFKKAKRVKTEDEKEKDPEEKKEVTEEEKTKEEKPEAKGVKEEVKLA
T4 sequence (O15379 whole entry): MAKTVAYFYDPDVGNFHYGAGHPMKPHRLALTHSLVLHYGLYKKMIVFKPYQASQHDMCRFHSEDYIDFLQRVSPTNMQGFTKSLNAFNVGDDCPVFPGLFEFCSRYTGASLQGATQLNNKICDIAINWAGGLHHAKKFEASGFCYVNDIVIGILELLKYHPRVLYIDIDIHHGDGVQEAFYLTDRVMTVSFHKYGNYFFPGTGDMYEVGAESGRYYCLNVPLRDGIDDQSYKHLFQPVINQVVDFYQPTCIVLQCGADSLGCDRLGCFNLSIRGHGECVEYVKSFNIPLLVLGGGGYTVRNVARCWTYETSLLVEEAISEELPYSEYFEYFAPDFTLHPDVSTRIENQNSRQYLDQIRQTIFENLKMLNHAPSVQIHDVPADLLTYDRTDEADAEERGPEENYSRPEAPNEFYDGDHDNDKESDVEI
T4 sequence (Q9Y618 395-489 partner limits assumed): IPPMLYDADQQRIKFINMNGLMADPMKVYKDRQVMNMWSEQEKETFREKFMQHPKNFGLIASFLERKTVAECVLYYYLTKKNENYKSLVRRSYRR
T2 sequence (Q92769 whole entry): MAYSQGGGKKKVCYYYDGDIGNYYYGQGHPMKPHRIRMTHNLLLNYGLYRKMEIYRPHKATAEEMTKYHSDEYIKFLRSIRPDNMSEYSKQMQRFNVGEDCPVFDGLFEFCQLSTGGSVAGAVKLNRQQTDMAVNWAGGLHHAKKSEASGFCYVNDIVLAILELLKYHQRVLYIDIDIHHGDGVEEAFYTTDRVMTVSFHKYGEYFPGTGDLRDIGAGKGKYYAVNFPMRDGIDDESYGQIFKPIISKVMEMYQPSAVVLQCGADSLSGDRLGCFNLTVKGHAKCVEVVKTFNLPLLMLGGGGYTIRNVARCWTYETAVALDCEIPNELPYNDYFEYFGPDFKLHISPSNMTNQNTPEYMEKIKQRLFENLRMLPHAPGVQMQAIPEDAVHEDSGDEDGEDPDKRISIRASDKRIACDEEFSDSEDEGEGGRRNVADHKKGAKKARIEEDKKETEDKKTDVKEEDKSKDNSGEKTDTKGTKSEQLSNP
Experimental for A549 tumor cells: as §1
Experimental for MDA-MB-231 tumor cells: as §1
Experimental for SK-OV-3 tumor cells: as §1
Experimental for recombinant human HDAC1: (§2) The assays were carried out by Shanghai ChemPartner Co., Ltd. (Shanghai, China). Briefly, different concentrations of compounds were incubated with recombinant human HDAC1, HDAC2, HDAC3, HDAC6, and HDAC8 (BPS Biosciences, San Diego, CA, USA) at room temperature for 15 min, which was followed by adding Ac-peptide-AMC substrates to initiate the reaction in Tris-based assay buffer. Reaction mixtures were incubated at room temperature for 60 min in the HDAC1, HDAC2, HDAC3, and HDAC6 assays, and were incubated for 240 min in the HDAC8 assay. Then a stop solution containing trypsin was added. The coupled reaction was incubated for another 90 min at 37 °C. […] IC50 values were calculated by GraphPad Prism version 4.00 Windows (GraphPad Software, San Diego, CA, USA).
Experimental for recombinant human HDAC2: as §2
Experimental for recombinant human HDAC3: as §2
Experimental for recombinant human HDAC6: as §2
Experimental for recombinant human HDAC8: as §2

In general, IC50 refers to the concentration that inhibits the measured activity by half. As to `CCCCCCCC(=O)SCC/C=C(\F)[C@@H]1CC(=O)NCc2nc(cs2)C2=N[C@@](C)(CS2)C(=O)N[C@@H](C(C)C)C(=O)O1` [Compound 16a, S-((Z)-4-Fluoro-4-((5R,8S,11S/R)-8-isopropyl-5-methyl-6,9,13-trioxo-10-oxa-3,17-dithia-7,14,19,20-tetraazatricyclo[14.2.1.12,5]icosa-1(18),2(20),16(19)-trien-11-yl)but-3-en-1-yl) octanethioate], the IC50 on recombinant human HDAC1 was found to be 0.385 ± 0.045 µM; at recombinant human HDAC2 (read-out: IC50 ± SD HDAC2), 1.817 ± 0.017 µM; on recombinant human HDAC8, 0.255 ± 0.092 µM; with A549 tumor cells (A549, MTT, 72 h, seven-dose IC50 mode in duplicate, four-fold serial dilution), 0.52 ± 0.12 µM; in the assay on HCT116 tumor cells [1] (Homo sapiens, HCT-116, MTT, 72 h, read-out: IC50 ± SD HCT116 growth inhibition), 0.81 ± 0.13 µM; in the assay with MDA-MB-231 tumor cells (MDA-MB-231, MTT, 72 h, seven-dose IC50 mode in duplicate, four-fold serial dilution), 3.85 ± 0.44 µM. The IC50 with SK-OV-3 tumor cells (Homo sapiens, SK-OV-3, MTT, 72 h, read-out: IC50 ± SD SK-OV-3 growth inhibition) was 0.25 ± 0.13 µM.
For the compound `C[C@@]12CSC(=N1)c1csc(n1)CNC(=O)C[C@@H](/C(F)=C/CCS)OC(=O)[C@H](Cc1ccccc1)NC2=O` [Compound 15b], the “Selectivity (HDAC1/6)” value at recombinant human HDAC1 (setting [3]) amounted to 80. Moreover, the IC50 was found to be 0.0042 ± 0.0003 µM on recombinant human HDAC1 (read-out: IC50 ± SD HDAC1); 0.0162 ± 0.0004 µM at recombinant human HDAC2 (read-out: IC50 ± SD HDAC2); 0.0371 ± 0.0007 µM on recombinant human HDAC3; 0.0176 ± 0.0041 µM on recombinant human HDAC8 (setting [4]); 0.338 ± 0.017 µM on recombinant human HDAC6.
Turning to `CC(C)[C@@H]1NC(=O)[C@]2(C)CSC(=N2)c2csc(n2)CNC(=O)C[C@@H](/C(F)=C/CCS)OC1=O` [Compound 15a, (5R,8S,11S/R)-11-((Z)-1-Fluoro-4-mercaptobut-1-en-1-yl)-8-isopropyl-5-methyl-10-oxa-3,17-dithia-7,14,19,20-tetraazatricyclo[14.2.1.12,5]icosa-1(18),2(20),16(19)-triene-6,9,13-trione], the “Selectivity (HDAC1/6)” value on recombinant human HDAC1 (setting [3]) is reported as 68. The “selectivity towards HDAC 1 over HDAC 6” value at recombinant human HDAC1 (setting [3]) is “about 68 fold”. Further, the IC50 on recombinant human HDAC1 (read-out: IC50 ± SD HDAC1) was 0.0044 ± 0.0002 µM; on recombinant human HDAC2 (read-out: IC50 ± SD HDAC2), 0.021 ± 0.0003 µM; at recombinant human HDAC3, 0.0392 µM and 0.039 µM; on recombinant human HDAC8 (setting [4]) it was 0.0085 ± 0.0025 µM; on recombinant human HDAC6 it was 0.3 ± 0.005 µM.
With `CCCCCCCC(=O)SCC/C=C/[C@@H]1CC(=O)NCc2nc(cs2)C2=N[C@@](C)(CS2)C(=O)N[C@@H](C(C)C)C(=O)O1` [Largazole, reference compound], the IC50 at recombinant human HDAC1 (10-dose IC50 mode in duplicate, threefold serial dilution, 60 min reaction, read-out: IC50 ± SD HDAC1) was determined as 0.228 ± 0.034 µM; at recombinant human HDAC2, 1.52 ± 0.015 µM; at recombinant human HDAC8, 0.12 ± 0.058 µM; with A549 tumor cells (A549, 72 h), 0.46 ± 0.1 µM; in the assay on HCT116 tumor cells [1] (Homo sapiens, HCT-116, 72 h, read-out: IC50 ± SD HCT116 growth inhibition, MTT, 72 h) it was 0.184 µM; in the assay with HCT116 tumor cells [1] (read-out: IC50 ± SD HCT116 growth inhibition, MTT, 72 h) it was 0.18 ± 0.01 µM. The IC50 in the assay on MDA-MB-231 tumor cells (MDA-MB-231, 72 h) was 1.37 ± 0.41 µM; in the assay with SK-OV-3 tumor cells (Homo sapiens, SK-OV-3, 72 h, read-out: IC50 ± SD SK-OV-3 growth inhibition, MTT, 72 h) it was 0.034 µM; in the assay on SK-OV-3 tumor cells (read-out: IC50 ± SD SK-OV-3 growth inhibition, MTT, 72 h) it was 0.03 ± 0.01 µM; in the assay on HCT116 tumor cells [2], 0.044 µM.
